Test results published in patent US6683060B2, “Matrix metalloproteinase and tumor necrosis factor inhibitors” (Advanced Gene Technology Corp., priority 2002, dated 2004).
Where two headings read alike, the source gives them in different places.

How the values were obtained:
[1] = system: ES-2, COLO205, PC-3, A375, and A549 cell lines; assay: Proliferation/cytotoxicity assay on cancer cell lines (XTT assay); type: cell-based, human; details: 72 hours exposure, five cancer cell lines; for cellular viability (XTT assay): serially two-fold diluted from 0.258 mg/ml, data not shown
Source text: Five cancer-derived cell lines obtained from the American Type Culture Collection (ATCC) were used for the following proliferation/cytotoxicity assay. These cell lines are listed as follow:
(§1) ES-2 is a human ovarian carcinoma. It was maintained in a modified McCoy's 5A medium (Gibco) and supplemented with 10% FBS (fetal bovine serum).
(§2) COLO205 is a human colon cancer-derived cell line. It was maintained in a RPMI 1640 medium (Hyclone), and supplemented with 10% heat-inactivated FBS.
(§3) PC-3 is a human prostate cancer-derived cell line. It was maintained in a Ham's F12 K medium (Gibco) and supplemented with 7% FBS.
(§4) A375 is a human malignant melanoma-derived cell line. It was maintained in a Dulbecco's modified Eagle's medium (DMEM, Hyclone) and supplemented with 10% FBS, 4 mM L-glutamine, 4.5 g/l glucose, and 1.0 mM sodium pyruvate.
(§5) A549 is a human lung cancer-derived cell line. It was maintained in a F12K medium (Gibco) and supplemented with 10% FBS.
To determine the cytotoxicity of Compound 1 or uridine on each cancer cell lines, ES-2, COLO205, PC-3, A375, and A549 cell lines were used. Each cancer cell line at a concentration of 1×10^4 cells/100 μl in each well (Falcon, MicroTest™ 96) was exposed to Compound 1, uridine or 1 μM paclitaxel (taxol, Sigma) for 72 hours in a complete medium. The Compound 1 and uridine were serially two-fold diluted from the concentration of 0.258 mg/ml.
Cellular viability was estimated by the tetrazolium dye reduction assay (XTT assay, Boehringer Mannheim). The amount of XTT reagent (a tetrazolium salt) added to the bottom wells was 100 μl/well and its concentration was 1 mg/ml. The-wells were incubated for 4 hours to allow viable cells to develop color. Absorbance (O.D.) was measured at 450 nm with the reference wavelength at 690 nm.

ES-2 cells = assay: Invasive/metastatic potential of cancer cells, Boyden chemotaxis assay chambers; type: cell-based, human; details: 18-hour incubation; for IC50: Homo sapiens
Description: as §1
(§6) In this method, Boyden chemotaxis assay chambers (Costar Transwell plates) were used. Each Boyden chemotaxis assay chamber included a top chamber having a filter as the bottom side of the top chamber and a bottom well surrounding the top chamber. The bottom side of the top chamber used here was an 8 μm-pore polycarbonate filter.
0.35 ml of a medium with complete nutrition supplements as a chemo-attractant was added to each bottom well. Cancer cells (2×10^5 in 50 μl) were then plated on the filters in each of the top chambers. Compound 1 or uridine was diluted in the serum-free medium to 0.536 mg/ml and then was added to the top chambers, with the volume of 50 μl/chamber. The control tests were performed with 2 μM paclitaxel (positive control) or with medium only (negative control) in the top chambers.
After an 18-hour incubation, the cells in the top chambers were carefully emptied with sterile cotton buds. 100 μl XTT reagent (1 mg/ml) was added to each of the bottom wells. After incubating for 4 hours, absorbance (O.D.) was measured at 450 nm with the reference wavelength at 690 nm. The ratio of the OD from the bottom wells to that of the OD from the bottom wells of the control tests was taken as the invasive potential. Results presented are from three different independent experiments.

[2] = system: COLO205, PC-3, A375, A549 cell lines; assay: Invasive/metastatic potential of cancer cells, Boyden chemotaxis assay chambers, other four cell lines; type: cell-based, human; details: same concentration ranges as ES-2, data not shown
Description: as §2, §3, §4, §5, §6
0.35 ml of a medium with complete nutrition supplements as a chemo-attractant was added to each bottom well. Cancer cells (2×10^5 in 50 μl) were then plated on the filters in each of the top chambers. […]
After an 18-hour incubation, the cells in the top chambers were carefully emptied with sterile cotton buds. […] After incubating for 4 hours, absorbance (O.D.) was measured at 450 nm with the reference wavelength at 690 nm. […]

MMP-2 = target: T1, MMP-2 (Homo sapiens, UniProt P08253); assay: Inhibition of MMP-2 gelatinase activity on microtiter plates (biotinylated gelatin hydrolysis); type: biochemical
T1 construct: The purified enzyme was already an active form with a molecular weight of about 64K; endogenous in cells; host or cells: ES-2 human ovarian carcinoma cells (secreted into serum-free conditioned medium; purified on gelatin-Sepharose 4B)
T1 sequence (P08253 110-660): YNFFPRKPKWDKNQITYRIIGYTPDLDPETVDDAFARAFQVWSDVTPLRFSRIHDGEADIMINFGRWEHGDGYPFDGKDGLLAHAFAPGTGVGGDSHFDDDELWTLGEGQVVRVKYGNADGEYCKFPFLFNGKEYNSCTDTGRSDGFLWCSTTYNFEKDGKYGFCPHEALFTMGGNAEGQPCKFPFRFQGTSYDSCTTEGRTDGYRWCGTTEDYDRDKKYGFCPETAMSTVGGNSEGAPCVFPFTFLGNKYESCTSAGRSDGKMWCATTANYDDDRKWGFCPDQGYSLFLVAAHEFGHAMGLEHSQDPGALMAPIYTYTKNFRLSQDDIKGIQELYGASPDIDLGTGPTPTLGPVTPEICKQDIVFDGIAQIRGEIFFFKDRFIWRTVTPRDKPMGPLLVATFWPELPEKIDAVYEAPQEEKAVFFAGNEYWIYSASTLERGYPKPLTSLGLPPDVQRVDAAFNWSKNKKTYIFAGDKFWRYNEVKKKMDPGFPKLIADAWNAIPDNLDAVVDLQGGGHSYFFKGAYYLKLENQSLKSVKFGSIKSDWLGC
Description: The MMP-2 enzyme was obtained from cancer cells and then purified by using gelatin-Sephose 4B (Pharmacia). Serum-free conditioned medium from human ovarian carcinoma cells, ES-2, was concentrated 50-fold and then MMP-2 enzyme was obtained by ultrafiltration using a 30,000 MW (molecular weight) cut-off membrane (YM-30, Amicon). The affinity matrix was equilibrated with an equilibration buffer, which was composed of 50 mM Tris.HCl (pH7.6), 10 mM EDTA and 0.01% Tween 20, containing 0.5 M NaCl. After extensive washing with the equilibration buffer containing 0.5 M NaCl, the bound enzyme was eluted with the equilibration buffer containing 1 M NaCl. […]
The plates were then read at 450 nm (reference length 470 nm) in a microtiter plate reader (Dynex, MRX). The absorbance at 450 nm […] as the concentration of MMP-2 […]. […] Therefore, in the reaction of BG with MMP-2, the absorbance should be a factor 3-5 times lower than an absorbance reading of BG without MMP-2 enzyme (a gelatinase). […]
The effect of Compound 1 on MMP-2 activity was measured by basically the same procedure as described in the section, GELATINASE ASSAY ON MICROTITER PLATES. As Compound 1 was similar to uridine in chemical structure, the effect of a commercial available uridine (Sigma, U-3750, D-Ribose) on MMP-2 activity was also measured for comparison in the experiment. […]

TNFα binding to TNFα-RI = TNFα binding to TNFα-RI (Homo sapiens, UniProt P01375+P19438); assay: Inhibition of binding of biotinylated TNFα to TNFα-RI on coated microtiter plate
Description: 50 μl TNFα-RI at a concentration of 0.25 μg/ml was coated onto each well of a 96-well C-bottom microtiter plate (Nunc) in a 50 mM carbonate buffer (pH 9.5) at 4° C. overnight. The plate was washed 3 times with 200 μl TBST solution composed of 50 mM Tris.HCl (pH 7.35) containing 0.15 M NaCl and 0.05% Tween 20 to remove excess TNFα-RI. 200 μl/well of 0.5% BSA in PBS was added to each plate for blocking of the TNFα-RI. The reaction was carried out at 37° C. for 2 hours followed by washing 4 times with TBST to remove excess BSA.
Compound 1 was serially diluted in TBST solution. Biotinylated TNFα with a concentration of 0.5 μg/ml was mixed with Compound 1 solution in a volume ratio of 1:1. The reaction was allowed to proceed for 30 minutes at 37° C. with shaking at 500 rpm for allowing mixing. The mixtures were then added to the TNFα-RI coated plate, 50 μl for each well. The plate was then incubated at 37° C. for 2 hours with shaking again at 500 rpm, for competitive binding of the biotinylated TNFα and Compound 1.
Followed by washing 4 times with TBST, Extravidin-alkaline phosphatase (Sigma) diluted in TBST (1/5,000) was added to the plate, 50 μl/well. The plate was further incubated at 37° C. for 2 hours and then washed 4 times with TBST. […] After a 30-minute incubation at room temperature, absorbance at the wavelength of 405 nm was measured. […]

Chain of TNFα binding to TNFα-RI (P01375 77-233 limits assumed): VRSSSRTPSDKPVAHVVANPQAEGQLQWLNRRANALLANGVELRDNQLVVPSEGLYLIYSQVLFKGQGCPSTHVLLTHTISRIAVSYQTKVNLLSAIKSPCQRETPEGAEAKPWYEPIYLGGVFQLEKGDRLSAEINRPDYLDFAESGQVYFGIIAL
Chain of TNFα binding to TNFα-RI (P19438 22-211 limits assumed): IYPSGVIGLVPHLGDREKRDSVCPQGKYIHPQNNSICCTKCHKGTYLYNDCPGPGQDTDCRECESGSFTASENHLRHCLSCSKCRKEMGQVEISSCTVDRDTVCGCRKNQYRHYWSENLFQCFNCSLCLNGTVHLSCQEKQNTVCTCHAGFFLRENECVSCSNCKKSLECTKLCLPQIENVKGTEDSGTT

Structure (SMILES)	cellular viability (XTT assay) [1]	IC50 (ES-2 cells; XTT readout of bottom wells, read-out: 50% inhibitory dose (IC50) on invasive potential) [µg/mL]	IC50 (ES-2 cells; printed conversion of 23 μg/ml, read-out: 50% inhibitory dose (IC50) on invasive potential, converted to molar) [µM]	effect on invasive potential [2]	IC50 (MMP-2; purified MMP-2 from ES-2 conditioned medium, biotinylated gelatin substrate, read-out: 50% inhibitory dose (IC50) on MMP-2 activity) [µM]	inhibition activity on TNFα binding to TNFα-RI compared with Suramin (TNFα binding to TNFα-RI; FIG. 6, Suramin as comparative compound)	IC50 (TNFα binding to TNFα-RI; biotinylated TNFα 0.5 μg/ml mixed 1:1 with compound, TNFα-RI coated plate, read-out: 50% inhibitory dose (IC50) on TNFα binding to TNFα-RI) [µM]	inhibition of cell proliferation (XTT assay) ([1]; paclitaxel positive control)	effect on invasive potential (ES-2 cells; data not shown)	inhibitory activity to MMP-2 (MMP-2; at the concentration of 0.82 mM, data not shown)
O=c1ccn(C2OC(CCO)C(O)C2O)c(=O)[nH]1 (stereo not drawn) [Compound 1, 1-[3,4-dihydroxy-5-(2-hydroxyethyl)tetrahydrofuran-2-yl]pyrimidine-2,4(1H,3H)-dione]	did not reduce cellular viability	23	90	not significantly affected	150	smaller than that of Suramin	50			
CC(=O)O[C@H]1C(=O)[C@@]2(C)[C@H]([C@H](OC(=O)c3ccccc3)[C@]3(O)C[C@H](OC(=O)[C@H](O)[C@@H](NC(=O)c4ccccc4)c4ccccc4)C(C)=C1C3(C)C)[C@]1(OC(C)=O)CO[C@@H]1C[C@@H]2O [paclitaxel]								inhibition of cell proliferation was proportional to the concentration of paclitaxel		
O=c1ccn([C@@H]2O[C@H](CO)[C@@H](O)[C@H]2O)c(=O)[nH]1 [uridine, reference compound]	did not reduce cellular viability			did not show any effect					did not show any effect	no inhibitory activity
